Source: patent US8476253B2, “Amide derivative” (Daiichi Sankyo Company, Limited, priority 2009, dated 2013)
Structures can show the parent of a compound that is named as a salt. Where two headings read alike, the source gives them in different places.

How the values were obtained:
human M3 receptor = molecular target: T1, human M3 receptor (Homo sapiens, UniProt P20309); test: Test for binding to human M3 receptor
T1 construct: expressed in transfected cells; host or cells: CHO cells
Experimental: A solution of cryopreserved CHO cells expressing human M3 receptor was diluted with a buffer (50 mM tris-hydrochloride containing 0.5 mM of EDTA, pH 7.4) to obtain 5.0×10^5 of cells/mL and used as a crude membrane sample.
[N-methyl-^3H]-(−)-Scopolamine methyl chloride (GE Healthcare Japan Corporation) was diluted with 50 mM of tris-hydrochloride containing 0.5 mM of EDTA (pH 7.4), a test substance and 250 μL of the crude membrane sample solution were added to 250 μL of the mixture, and the mixture was incubated at room temperature for 60 minutes. […] The glass fiber filter paper was pretreated with a 0.1% polyethylenimine solution for 4 hours or longer to minimize non-specific binding. The filter collecting membrane components was transferred to a small-size plastic vial containing 3 mL of Pico-Fluor, and the radioactivity was measured with a liquid scintillation counter (Tri-Carb 2900TR or 2300TR; Perkin Elmer).
The effect of binding to the M3 receptor was calculated as the affinity (Ki) of the test substance for the M3 receptor from a 50% binding dose (IC50) and the affinity (Kd) of [N-methyl-^3H]-(−)-Scopolamine methyl chloride for the M3 receptor.

human NK2 receptor = molecular target: T2, human NK2 receptor (Homo sapiens, UniProt P21452); test: Test for binding to human NK2 receptor
T2 construct: expressed in transfected cells; host or cells: COS cells
T2 sequence (P21452 1-398): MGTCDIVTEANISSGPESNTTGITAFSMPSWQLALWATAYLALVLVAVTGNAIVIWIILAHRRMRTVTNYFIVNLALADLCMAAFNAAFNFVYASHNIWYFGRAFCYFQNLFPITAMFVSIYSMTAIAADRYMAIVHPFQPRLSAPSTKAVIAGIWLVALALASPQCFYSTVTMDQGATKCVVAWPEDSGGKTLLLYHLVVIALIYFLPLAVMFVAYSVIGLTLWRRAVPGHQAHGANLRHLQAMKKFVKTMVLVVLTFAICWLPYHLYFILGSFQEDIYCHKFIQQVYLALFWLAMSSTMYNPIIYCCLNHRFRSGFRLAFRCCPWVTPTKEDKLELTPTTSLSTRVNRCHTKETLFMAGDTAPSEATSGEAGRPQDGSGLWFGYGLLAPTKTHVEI
Experimental: A solution of cryopreserved COS cells expressing human NK2 receptor was diluted with a buffer (50 mM tris-hydrochloride containing 0.04% of bovine serum albumin [BSA], pH 7.4) to obtain a concentration of 5.0×10^5 cells/mL and used as a crude membrane sample.
[^3H]SR 48968 (GE Healthcare Japan Corporation) was diluted with a mixture of 50 mM of tris-hydrochloride (pH 7.4), 6 mM of manganese chloride tetrahydrate, 800 μg/mL of BSA, 8 μg/mL of chymostatin, 8 μg/mL of leupeptin, 80 μg/mL of bacitracin, and 20 μg/mL of phosphoramidon. […] After the reaction, the membrane components were collected on a GF/B glass fiber filter paper (Whatman; Biomedical Research and Development Laboratories, Inc.) with an automated filtration system (Brandel; Biomedical Research and Development Laboratories, Inc.). The glass fiber filter paper was pretreated with a 0.1% polyethylenimine solution for 4 hours or longer to minimize non-specific binding. The filter collecting the membrane components was transferred to a small-size plastic vial containing 3 mL of Pico-Fluor, and the radioactivity was measured with a liquid scintillation counter (Tri-Carb 2900TR or 2300TR; Perkin Elmer).
The effect of binding to the NK2 receptor was calculated as the affinity (Ki) of the test substance for the NK2 receptor from a 50% binding dose (IC50) and the affinity (Kd) of [^3H]SR 48968 for the NK2 receptor.

substance P receptor = molecular target: T3, substance P receptor (Cavia porcellus, UniProt P30547); test: Test for binding to guinea-pig substance P receptor (crude lung membrane sample); conditions: crude guinea-pig lung membrane sample, [3H]substance P; Ki from IC50 and Kd; read-out: Ki
T3 construct: A preparation of a crude lung membrane sample was prepared; from tissue; host or cells: guinea-pig lung (crude membrane sample)
T3 sequence (P30547 whole entry): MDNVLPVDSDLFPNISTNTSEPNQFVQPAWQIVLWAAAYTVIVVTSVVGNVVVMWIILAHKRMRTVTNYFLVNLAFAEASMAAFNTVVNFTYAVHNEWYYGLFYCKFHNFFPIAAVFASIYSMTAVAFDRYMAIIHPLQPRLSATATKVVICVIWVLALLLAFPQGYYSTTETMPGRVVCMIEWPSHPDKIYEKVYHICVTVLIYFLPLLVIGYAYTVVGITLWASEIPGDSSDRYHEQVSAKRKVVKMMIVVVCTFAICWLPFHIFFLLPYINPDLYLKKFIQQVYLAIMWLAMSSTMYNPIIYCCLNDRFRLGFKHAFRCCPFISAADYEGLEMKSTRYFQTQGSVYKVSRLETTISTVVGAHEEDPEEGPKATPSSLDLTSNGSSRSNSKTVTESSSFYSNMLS
Experimental: A preparation of a crude lung membrane sample was prepared, and a test for binding of a test substance to the sample was performed according to the method described in EP0336230A2.
The binding effect of the test substance to a substance P receptor was calculated as an affinity (Ki) of the test substance for the substance P receptor from a 50% binding concentration (IC50) and an affinity (Kd) of [^3H]substance P for the substance P receptor.

muscarine M3 receptor = test: Effect of suppressing methacholine-induced airway contraction (in vivo, intratracheal administration); set-up: species or system guinea pig; conditions: guinea pigs, intratracheal administration 60 minutes before 30 μg/kg i.v. methacholine; AUC of increase in airway pressure over 10 minutes
Experimental: Using healthy guinea pigs (body weight, 350 to 550 g; Hartley male guinea pigs), the effect of suppressing airway contraction induced by methacholine, which is a muscarine receptor agonist, was examined by a modified method of Konzett-Roessler (Naunyn-Schmiedebergs Arch. Exp. Pathol. Pharmakol. 195, 71 [1940]) using airway pressure as an indicator.
A tracheal cannula and a venous cannula were attached to a guinea pig anesthetized with pentobarbital (50 mg/mL of solution, 0.40 to 0.50 mL/body, subcutaneous administration). An arterial cannula filled with heparin-containing physiological saline (100 U/mL) was further attached, and blood pressure and heart rate were monitored via an amplifier and an instantaneous heart rate meter. Subsequently, gallamine (20 mg/body, intravenous administration) was administered to terminate spontaneous breathing, and then 10 mL/kg of positive pressure breathing (Ugo-Basile Biological Research Apparatus, Cat. No. 7025) was rapidly performed at 60 times/min. The airway pressure during artificial breathing was detected with a pressure transducer (TP-200T or TP-400T; Nihon Kohden Corporation) attached to a side branch of the tracheal cannula, amplified (AP-601G; Nihon Kohden Corporation), and recorded in a recorder. After the airway pressure, blood pressure, and heart rate were stabilized, 30 μg/kg of methacholine was intravenously administered from the venous cannula to induce airway contraction, and the airway pressure was measured for the following 10 minutes.
A test substance was dissolved in 5% glucose solution, and a 0.5 mL/kg solution was administered intratracheally with an intratracheal administration apparatus (model 1A-1B; Penn-Century, Inc.) 60 minutes before stimulation with methacholine.
The AUC of increase in the airway pressure over 10 minutes after administration of methacholine was measured as the intensity of methacholine-induced airway contraction and calculated as an ID50 value from the inhibition rate based on the value of the control group (a 5% glucose solution intratracheal administration group).

[1] = CHO cells expressing human M3 receptor, [N-methyl-3H]-(-)-Scopolamine methyl chloride 0.5 nM, Ki from IC50 and Kd, read-out: Ki
[2] = COS cells expressing human NK2 receptor, [3H]SR 48968 1 nM, Ki from IC50 and Kd, read-out: Ki

T1 sequence (P20309 whole entry): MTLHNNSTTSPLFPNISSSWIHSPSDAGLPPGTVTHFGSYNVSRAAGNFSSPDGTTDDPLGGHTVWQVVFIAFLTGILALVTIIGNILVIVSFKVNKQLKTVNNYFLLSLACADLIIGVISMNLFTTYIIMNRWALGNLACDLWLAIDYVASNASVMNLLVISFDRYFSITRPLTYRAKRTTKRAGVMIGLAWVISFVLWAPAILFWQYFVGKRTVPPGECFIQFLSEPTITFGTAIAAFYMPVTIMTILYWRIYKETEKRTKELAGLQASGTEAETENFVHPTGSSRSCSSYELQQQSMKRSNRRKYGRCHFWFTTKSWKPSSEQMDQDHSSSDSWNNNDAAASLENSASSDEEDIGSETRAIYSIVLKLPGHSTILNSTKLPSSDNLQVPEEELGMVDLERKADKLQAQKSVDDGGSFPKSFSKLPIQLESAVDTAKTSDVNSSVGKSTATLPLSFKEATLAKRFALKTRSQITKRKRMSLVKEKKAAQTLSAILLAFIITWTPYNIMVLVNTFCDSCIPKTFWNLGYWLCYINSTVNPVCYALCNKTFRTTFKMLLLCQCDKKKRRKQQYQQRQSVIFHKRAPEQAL

Row | SMILES | Ki (human M3 receptor; [1]) [nM] | Ki (human NK2 receptor; [2]) [nM] | Ki (substance P receptor) [nM] | ID50 (muscarine M3 receptor) [mg/kg] | Ki (human M3 receptor) [nM] | Ki (human NK2 receptor) [nM]
1 | CN(CCN1CCC(OC(=O)Nc2ccccc2-c2ccccc2)CC1)C(=O)CCCCCNc1ccc(C(=O)N(C)CCCN(C)C(=O)CO[C@H]2Cc3ccccc3C23CCN(CC[C@@]2(c4ccc(F)cc4)CN(C(=O)c4cc(C(F)(F)F)cc(C(F)(F)F)c4)CO2)CC3)s1 [Example 4, 1-(2-{[6-({5-[{3-[({[(2S)-1′-{2-[(5R)-3-[3,5-Bis(trifluoromethyl)benzoyl]-5-(4-fluorophenyl)-1,3-oxazolidin-5-yl]ethyl}-2,3-dihydrospiro[indene-1,4′-piperidin]-2-yl]oxy}acetyl)(methyl)amino]propyl}(methyl)carbamoyl]-2-thienyl}amino)hexanoyl](methyl)amino}ethyl)piperidin-4-yl biphenyl-2-ylcarbamate] | 2.1 | 0.62 | 1.8 | 0.0252 | – | –
2 | CN(CCN1CCC(OC(=O)Nc2ccccc2-c2ccccc2)CC1)C(=O)CCCCCCNc1ccc(C(=O)N(C)CCCN(C)C(=O)CO[C@H]2Cc3ccccc3C23CCN(CC[C@@]2(c4ccc(F)cc4)CN(C(=O)c4cc(C(F)(F)F)cc(C(F)(F)F)c4)CO2)CC3)cc1.Cl.Cl.Cl [Example 39, 1-(2-{[7-({4-[{3-[({[(2S)-1′-{2-[(5R)-3-[3,5-Bis(trifluoromethyl)benzoyl]-5-(4-fluorophenyl)-1,3-oxazolidin-5-yl]ethyl}-2,3-dihydrospiro[indene-1,4′-piperidin]-2-yl]oxy}acetyl)(methyl)amino]propyl}methyl)carbamoyl]phenyl}amino)heptanoyl](methyl)amino}ethyl)piperidin-4-yl biphenyl-2-ylcarbamate trihydrochloride] | 1.4 | 0.82 | 1.2 | – | – | –
3 | CN(CCN1CCC(OC(=O)Nc2ccccc2-c2ccccc2)CC1)C(=O)CCCCCNc1ccc(NC(=O)CCCN(C)C(=O)CO[C@H]2Cc3ccccc3C23CCN(CC[C@@]2(c4ccc(F)cc4)CN(C(=O)c4cc(C(F)(F)F)cc(C(F)(F)F)c4)CO2)CC3)cc1 [Example 82, 1-{2-[(6-{[4-({4-[({[(2S)-1′-{2-[(5R)-3-[3,5-Bis(trifluoromethyl)benzoyl]-5-(4-fluorophenyl)-1,3-oxazolidin-5-yl]ethyl}-2,3-dihydrospiro[indene-1,4′-piperidin]-2-yl]oxy}acetyl)(methyl)amino]butanoyl}amino)phenyl]amino}hexanoyl)(methyl)amino]ethyl}piperidin-4-yl biphenyl-2-ylcarbamate trihydrochloride] | – | – | 4.5 | – | 1.6 | 0.6
4 | Cc1nc(N(C)CCCCCC(=O)N(C)CCN2CCC(OC(=O)Nc3ccccc3-c3ccccc3)CC2)sc1C(=O)N(C)CCN(C)C(=O)CO[C@H]1Cc2ccccc2C12CCN(CC[C@@]1(c3ccc(F)cc3)CN(C(=O)c3cc(C(F)(F)F)cc(C(F)(F)F)c3)CO1)CC2 [Example 108, 1-{2-[{6-[{5-[{2-[({[(2S)-1′-{2-[(5R)-3-[3,5-Bis(trifluoromethyl)benzoyl]-5-(4-fluorophenyl)-1,3-oxazolidin-5-yl]ethyl}-2,3-dihydrospiro[indene-1,4′-piperidin]-2-yl]oxy}acetyl)(methyl)amino]ethyl}(methyl)carbamoyl]-4-methyl-1,3-thiazol-2-yl}(methyl)amino]hexanoyl}(methyl)amino]ethyl}piperidin-4-yl biphenyl-2-ylcarbamate trihydrochloride] | – | – | 1.3 | – | 3 | 0.79
5 | Cc1nc(N(C)CCCCCC(=O)N(C)CCN2CCC(OC(=O)Nc3ccccc3-c3ccccc3)CC2)sc1C(=O)N(C)CCCN(C)C(=O)CO[C@H]1Cc2ccccc2C12CCN(CC[C@@]1(c3ccc(F)cc3)CN(C(=O)c3cc(C(F)(F)F)cc(C(F)(F)F)c3)CO1)CC2 [Example 106, 1-{2-[{6-[{5-[{3-[({[(2S)-1′-{2-[(5R)-3-[3,5-Bis(trifluoromethyl)benzoyl]-5-(4-fluorophenyl)-1,3-oxazolidin-5-yl]ethyl}-2,3-dihydrospiro[indene-1,4′-piperidin]-2-yl]oxy}acetyl)(methyl)amino]propyl}(methyl)carbamoyl]-4-methyl-1,3-thiazol-2-yl}(methyl)amino]hexanoyl}(methyl)amino]ethyl}piperidin-4-yl biphenyl-2-ylcarbamate trihydrochloride] | – | – | 3.1 | – | 1.3 | 0.34
6 | CN(CCCCCC(=O)N(C)CCN1CCC(OC(=O)Nc2ccccc2-c2ccccc2)CC1)Cc1cccc(C(=O)N(C)CCCN(C)C(=O)CO[C@H]2Cc3ccccc3C23CCN(CC[C@@]2(c4ccc(F)cc4)CN(C(=O)c4cc(C(F)(F)F)cc(C(F)(F)F)c4)CO2)CC3)c1 [Example 41, 1-{2-[{6-[{3-[{3-[({[(2S)-1′-{2-[(5R)-3-[3,5-Bis(trifluoromethyl)benzoyl]-5-(4-fluorophenyl)-1,3-oxazolidin-5-yl]ethyl}-2,3-dihydrospiro[indene-1,4′-piperidin]-2-yl]oxy}acetyl)(methyl)amino]propyl}(methyl)carbamoyl]benzyl}(methyl)amino]hexanoyl}(methyl)amino]ethyl}piperidin-4-yl biphenyl-2-ylcarbamate trihydrochloride] | – | – | 0.96 | – | 1.4 | 0.26
